# From US20240254087A1, “SELECTIVE, PARTIAL, AND ARRESTIN-BIASED 5-HT2A AGONISTS WITH UTILITY IN VARIOUS DISORDERS” (Saint Joseph's University, priority 2021, published 2024)
# Read-outs that look alike come from different tables or passages of the source. Starred links: 1 amine or outer side, 2 acyl side, 3 side chain; linkers in the order of their positions; H or OH if unused. Positions of bridges follow the written chain, without caps; N, C: chain ends. Non-standard residues stand in square brackets, D forms with d. Residues, ends and D or L forms follow the SMILES beside them. X1 = CC(=O)NC(C(=O)OC(C(C)C)C(N[*:1])C(=O)[*:2])C(O)C(C)C; PhLac = O=C(O)[CH](O)Cc1ccccc1; NMeT = CN[CH](C(=O)O)[CH](C)O; NMeA = CN[CH](C)C(=O)O; NMeDha = C=C(NC)C(=O)O
# Legend:
# 5-HT2A [1] = target: T1, 5-HT2A (Homo sapiens, UniProt P28223); assay: cell-based; design: expressed in transfected cells; host or cells: HEK293T, transient
# 5-HT2A [2] = target: T1, 5-HT2A; conditions: cited from earlier work
# male C57BL/6J mice [3] = assay: Blockade of agonist-induced HTR by pretreatment; type: in vivo, mouse; conditions: C57BL/6J mice; pretreatment with Gq/11 or phospholipase C inhibitor
# Protocol: Vehicle or the NMDA receptor antagonist PCP (5 mg/kg) was injected IP 10 min after SC administration of vehicle or 25N-NB1-Nap (16), and then the mice were placed in the test chambers 10 min later for a 60-min assessment of locomotor activity. (C). […] Mice were treated with vehicle or M100907 (0.03 mg/kg SC) 10 min prior to vehicle or PCP (5 mg/kg IP): animals were placed in the test chambers 10 min after treatment with PCP.
# Male C57BL/6J mice (6-8 weeks old) from Jackson Labs (Bar Harbor, ME, USA) were used for the behavioral experiments. The mice were housed on a reversed light-dark cycle (lights on at 1900 h, off at 0700 h) in an AAAC-approved vivarium at the University of California San Diego. Mice were housed up to four per cage in a climate-controlled room and with food and water provided ad libitum except during behavioral testing. Testing was performed between 1000 and 1800 h (during the dark phase of the light-dark cycle). The studies were conducted in accordance with National Institutes Health (NIH) guidelines and were approved by the University of California San Diego Institutional Animal Care and Use Committee.
# (§1) The mice were allowed to recover from the magnet implantation surgeries for at least 1 week prior to behavioral testing. HTR experiments were conducted in a well-lit room, and the mice were allowed to habituate to the room for at least 1 h prior to testing. Head twitches was assessed in a 12-cm diameter glass cylinder surrounded by a magnetometer coil. Coil voltage was low-pass filtered (2 kHz), amplified, and digitized (20-kHz sampling rate) using a Powerlab/8SP with LabChart v 7.3.2 (ADInstruments, Colorado Springs, CO, USA). […] HTR counts were analyzed using one-way ANOVAs. Dunnett's test was used for post hoc comparisons.
# 5-HT2A [4] = target: T1, 5-HT2A; assay: cell-based; design: expressed in transfected cells; host or cells: HEK293T, transient; conditions: BRET, mean ± SEM; hydrochloride
# 5-HT2B = 5-HT2B (Homo sapiens, UniProt P41595); assay: BRET Gq dissociation, 5-HT2B; type: cell-based; design: expressed in transfected cells; host or cells: HEK293T, transient
# 5-HT2C = target: T2, 5-HT2C (Homo sapiens, UniProt P28335); assay: BRET Gq dissociation, 5-HT2C; type: cell-based; design: expressed in transfected cells; host or cells: HEK293T, transient
# T2 sequence (P28335 33-458): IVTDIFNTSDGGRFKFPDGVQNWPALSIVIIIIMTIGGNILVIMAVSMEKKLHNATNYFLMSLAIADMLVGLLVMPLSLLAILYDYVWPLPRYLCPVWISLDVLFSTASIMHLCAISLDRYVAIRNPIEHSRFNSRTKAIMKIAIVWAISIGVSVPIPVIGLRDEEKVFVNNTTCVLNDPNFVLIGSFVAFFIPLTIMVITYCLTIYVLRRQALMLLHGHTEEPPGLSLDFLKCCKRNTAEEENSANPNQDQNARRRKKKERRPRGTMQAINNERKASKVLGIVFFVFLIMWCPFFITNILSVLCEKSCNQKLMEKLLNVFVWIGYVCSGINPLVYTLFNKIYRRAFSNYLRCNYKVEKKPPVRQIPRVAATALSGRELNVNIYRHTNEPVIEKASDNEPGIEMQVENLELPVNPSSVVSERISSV
# male C57BL/6J mice [5] = assay: Tolerance: DOI-induced HTR after 5 days repeated treatment; type: in vivo, mouse; conditions: 5 days SC: 25N-N1-Nap 20, DOI 10, pimavanserin 1 mg/kg/day
# Protocol: as §1
# 5-HT2A [6] = target: T1, 5-HT2A; assay: NanoLuc internalization assay; type: cell-based; conditions: 60 min
# male C57BL/6J mice [7] = assay: Head-twitch response (HTR) in mice; type: in vivo, mouse; conditions: for ED50: Mus musculus
# Method in brief: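 Head twitches in male C57BL/6J mice (6-8 weeks) carrying head-mounted magnets were detected with a magnetometer coil around a 12-cm glass cylinder during the dark phase. Coil signal was low-pass filtered at 2 kHz and digitized at 20 kHz. Counts were analyzed by one-way ANOVA with Dunnett's post hoc test.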
# T1 sequence (P28223 whole entry): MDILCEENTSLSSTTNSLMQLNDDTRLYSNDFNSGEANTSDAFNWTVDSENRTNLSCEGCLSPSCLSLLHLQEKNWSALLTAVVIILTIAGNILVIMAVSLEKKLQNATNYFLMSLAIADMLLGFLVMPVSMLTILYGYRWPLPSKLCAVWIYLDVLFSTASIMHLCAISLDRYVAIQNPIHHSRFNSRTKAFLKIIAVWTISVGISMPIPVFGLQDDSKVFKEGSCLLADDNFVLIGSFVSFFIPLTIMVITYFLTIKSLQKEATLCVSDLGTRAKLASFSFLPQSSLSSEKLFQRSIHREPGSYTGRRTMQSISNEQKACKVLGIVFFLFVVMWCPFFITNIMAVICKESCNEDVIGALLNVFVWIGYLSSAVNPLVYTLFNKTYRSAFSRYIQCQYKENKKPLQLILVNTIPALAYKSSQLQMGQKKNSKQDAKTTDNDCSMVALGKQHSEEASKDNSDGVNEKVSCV
# Sequence of 5-HT2B (P41595 whole entry): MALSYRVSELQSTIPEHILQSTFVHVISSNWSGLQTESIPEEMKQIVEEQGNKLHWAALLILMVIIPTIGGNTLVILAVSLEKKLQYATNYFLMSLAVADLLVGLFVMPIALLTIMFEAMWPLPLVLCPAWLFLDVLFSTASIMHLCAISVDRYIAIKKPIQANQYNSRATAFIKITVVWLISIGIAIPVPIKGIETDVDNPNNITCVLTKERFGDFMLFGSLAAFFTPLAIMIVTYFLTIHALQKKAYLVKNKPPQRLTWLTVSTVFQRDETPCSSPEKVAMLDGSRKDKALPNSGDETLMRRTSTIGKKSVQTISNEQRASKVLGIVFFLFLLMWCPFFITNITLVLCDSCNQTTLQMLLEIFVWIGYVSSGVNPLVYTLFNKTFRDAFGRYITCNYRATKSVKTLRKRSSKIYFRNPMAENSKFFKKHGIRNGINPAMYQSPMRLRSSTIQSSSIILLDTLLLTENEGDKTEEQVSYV
structure (smiles),measurement,setting,value
"CCN(CC)C(=O)[C@@H]1C=C2c3cccc4[nH]cc(c34)C[C@H]2N(C)C1 [LSD, reference compound]",5-HT2A β-arrestin Emax (% 5-HT),"5-HT2A [1]; BRET, mean ± SEM",85 ± 3 % 5-HT
same,Emax in a 5-HT2A-Gq calcium flux assay,5-HT2A [2],84.6%
"C=C1C(=O)NC(C)C(=O)N(C)C(C)C(=O)NC(C(OC(=O)C(NC(C)=O)C(O)C(C)C)C(C)C)C(=O)N(C)C(C(C)OC)C(=O)OC(C)C(NC(C)=O)C(=O)OC(Cc2ccccc2)C(=O)N1C (stereo not shown) [YM-254,890, reference compound] (Ac-T[PhLac][NMeDha]A[NMeA][X1][NMeT](Me); ester 1-C; configuration not given here)",Blockade of the HTR induced by (+/−)-DOI and 25N-NBOMe,male C57BL/6J mice [3],blocked
"COc1cc(CC(C)N)c(OC)cc1I.Cl (racemic) [(±)-DOI, (±)-2,5-dimethoxy-4-iodoamphetamine hydrochloride, reference compound]",5-HT2A Gq Emax (% 5-HT),5-HT2A [4],108.2 ± 4.2 % 5-HT
same,EC50,5-HT2B,12.6 nM
same,Emax,5-HT2B; read-out: 5-HT2B Gq Dissociation (BRET) EMAX ± SEM (%5-HT),103 ± 2.8%
same,EC50,5-HT2C,0.832 nM
same,Emax,5-HT2C; read-out: 5-HT2C Gq Dissociation (BRET) EMAX ± SEM (%5-HT),114 ± 3.4%
same,Ability of DOI (1 mg/kg IP) to induce the HTR after repeated daily treatment,male C57BL/6J mice [5],reduced significantly
same,Internalization of 5-HT2A receptors,5-HT2A [6],strong internalization
same,Emax,"5-HT2A [1]; read-out: 5-HT2A β-arrestin Emax (% 5-HT), BRET, mean ± SEM",88.8 ± 1.9%
same,Emax in a 5-HT2A-Gq calcium flux assay,5-HT2A [2],81.3%
same,Max HTR response during a 30-min assessment (maximum counts ÷ baseline response),male C57BL/6J mice [7],9.9-fold increase
same,ED50,"male C57BL/6J mice [7]; read-out: HTR ED50 μmol/kg (95% CI), SC, except DOI and 25D-NBOMe IP",0.8 µmol/kg
same,ED50,"male C57BL/6J mice [7]; read-out: HTR ED50 mg/kg (95% CI), SC, except DOI and 25D-NBOMe IP",0.29 mg/kg
CC(C)COc1ccc(CNC(=O)N(Cc2ccc(F)cc2)C2CCN(C)CC2)cc1 [Pimavanserin],Ability of DOI (1 mg/kg IP) to induce the HTR after repeated daily treatment,male C57BL/6J mice [5],not altered
